Format in all cases: functional, cell-based
The subject of experiment [1] is KB. The experiment is described as follows: Antiproliferative activity against hydroxyurea-resistant human KB cells after 24 hrs by MTS assay. Background: Tetrazolium dyes change colour on reduction, which living cells bring about.
Experiment [2] relates to KB. The experiment is described as follows: Antiproliferative activity against wild-type human KB cells after 24 hrs by MTS assay.
In experiment [3] the test system is L1210. The experiment is described as follows: Antiproliferative activity against mouse L1210 cells after 24 hrs by MTS assay. The settings on record: L1210, 24 h.
Experiment [4] concerns CCRF-SB. The experiment is described as follows: Antiproliferative activity against human CCRF-SB cells after 96 hrs by MTT assay.
The test system of experiment [5] is SK-MEL-28. Description: Antiproliferative activity against human SK-MEL-28 cells after 96 hrs by MTT assay. As to conditions: SK-MEL-28, 96 h.
Experiment [6] has as its system CCRF-CEM. Description: Antiproliferative activity against human CCRF-CEM cells after 96 hrs by MTT assay.
The test system of experiment [7] is WIL2-NS. The experiment is described as follows: Antiproliferative activity against human WIL2-NS cells after 96 hrs by MTT assay.
Experiment [8] relates to MT4. The experiment is described as follows: Antiproliferative activity against human MT4 cells after 96 hrs by MTT assay. As to conditions: MT4, 96 h.
The subject of experiment [9] is MCF7. The experiment is described as follows: Antiproliferative activity against human MCF7 cells after 96 hrs by MTT assay. As to conditions: MCF7, 96 h.

Structures are written as SMILES.

The term IC50 denotes the concentration that inhibits the measured activity by half. Lower therefore signals greater potency in that assay. For the compound `Cc1c2ccccc2c(/C=N/NC(=O)NO)c2ccccc12`, the half-maximal inhibitory concentration (IC50) in experiment [1] was 8.9 µM; in experiment [2], 9.3 µM; in [3], 6.5 µM.
With `O=[N+]([O-])c1ccc(/C=N\c2nsc3ccccc23)o1`, the IC50 in experiment [4] came out at 5 µM; in [5], 6 µM; in experiment [6], 2 µM; in experiment [7], 6.5 µM; in [8], 2 µM; in [9], 10 µM.

For the origin of these results see ChEMBL document CHEMBL2396568, “An insight into synthetic Schiff bases revealing antiproliferative activities in vitro” (Bioorg Med Chem, 2013).
